Results: patent publication US11202743B2, “Personal care compositions comprising fatty acid amide derivatives” (Conopco, Inc., priority 2016, dated 2021)

Legend:
human CB1 receptor = human CB1 receptor (Homo sapiens (Human), UniProt P21554); assay: CB1 receptor binding assay, displacement of 3H CP-55,940 from membrane preparation; details: inhibition of 3H CP-55,940 binding (1 nM), human CB1 membranes
Method: (§1) The ability of the compounds according to some embodiments of the present invention to inhibit a radiolabeled cannabinoid ligand, CP-55,940, [Side chain-2,3,4(N)-3H(N)]-(Perkin-Elmer Cat. # NET1051) to either the human CB1 receptor or CB2 receptor was determined according to the manufacturer's instructions in the commercially available membrane preparations from Perkin Elmer (Cat Nos. RBHCB1M400UA and RBXCB2M400UA). Briefly, pre-treatment of the glass fiber membrane of a Matrix 96 well GFC filtration microtiter plate was done in order to help reduce non-specific binding of the radioligand to the GFC membrane. This was done by adding 150 μl of 0.5% polyethylimine (PEI) to each well and letting this remain in the plate for at least 4 hours before using it to terminate the binding reaction. The actual binding reaction was performed in a polypropylene (PP) round bottom 96-well microtiter plate. Briefly, 55 μl of assay buffer (50 mM TRIS pH7.4, 2.5 mM EGTA, 5 mM MgCl2, 120 mM NaCl, 0.1% Fatty acid free BSA) was added to each well, followed by 20 μl of a 0.4 mg/ml CB1 or CB2 membrane suspension (8 μg membrane per well). To initiate the reaction, 20 μl of 5 nM ^3H CP-55,940 (1 nM final concentration) was added to each well. Nonspecific binding was defined in the presence of 20 μM unlabeled WIN 55212 (Sigma cat. W-102). ACEA was routinely used as a positive control for both assays. The plate was shaken on an orbital plate shaker and the binding reaction proceeded until equilibrium was reached after 3 hours at room temperature. Using a Multiscreen vacuum manifold, the PEI was filtered through the GFC filter plate. The binding reaction in the PP plate was mixed by aspirating the reaction contents of each well and dispensing back into the plate. This was repeated 4 times and then 75 μl of the reaction mixture was transferred to the GFC plate. This procedure could be done row by row with the use of a multichannel pipette, or all at once if using automation. Once the entire content of the PP plate was transferred to the GFC plate, the binding reactions were terminated by filtering thru the GFC plate. The filter plate was then washed by adding 100 μl ice-cold wash buffer 50 mM TRIS pH 7.4, 2.5 mM EGTA, 5 mM MgCl2, 120 mM NaCl, 2% Fatty acid free BSA) to each well and filtering through. This was repeated 8 times, after which the filter mat was allowed to dry. Once the filter mat was dry, 50 μl of Microscint scintillation cocktail was added to each well, allowed to sit for 15-20 min, and the plate read on a Microbeta2 scintillation counter.
(§2) The lower the IC50 value, the higher the binding.

human CB2 receptor = human CB2 receptor (Homo sapiens (Human), UniProt P34972); assay: CB2 receptor binding assay, displacement of 3H CP-55,940 from membrane preparation; details: inhibition of 3H CP-55,940 binding (1 nM), human CB2 membranes
Method: as §1, §2

[1] = molecular target: recombinant human FAAH enzyme (Homo sapiens (Human), UniProt O00519); assay: FAAH inhibition assay (Cayman Chemicals kit, AMC-arachidonoyl amide hydrolysis, fluorescence); assay type: biochemical
Method: The ability of the compounds according to some embodiments of the present invention to inhibit FAAH was determined according to the methods disclosed a commercially available kit from Cayman Chemicals (Cayman Cat. No. 10005196). The kit utilizes recombinant human FAAH enzyme which hydrolyzes AMC-arachidonoyl amide resulting in the release of the fluorescent product, 7-amino-4-methylcoumarin (AMC). The fluorophore was detected via fluorescence, using an excitation wavelength of 340-360 nm and an emission wavelength of 450-465 nm. The assay was followed as described in the kit manual, which can be found on the webpage of Cayman Chemicals.

[2] = Effect on solubility of 12 HSA (visual observation); assay type: physicochemical
[3] = system: serotonin-induced scratches (itch); details: mice; cited from earlier work
[4] = 41.18% Tween 20, 29.41% 12-HSA, 29.41% compound
[5] = 41.18% Tween 60, 29.41% 12-HSA, 29.41% compound
[6] = 41.67% Tween 60, 41.67% 12-HSA, 16.67% compound
[7] = 48.28% Tween 20, 34.48% 12-HSA, 17.24% compound

Sequence of recombinant human FAAH enzyme (O00519 whole entry): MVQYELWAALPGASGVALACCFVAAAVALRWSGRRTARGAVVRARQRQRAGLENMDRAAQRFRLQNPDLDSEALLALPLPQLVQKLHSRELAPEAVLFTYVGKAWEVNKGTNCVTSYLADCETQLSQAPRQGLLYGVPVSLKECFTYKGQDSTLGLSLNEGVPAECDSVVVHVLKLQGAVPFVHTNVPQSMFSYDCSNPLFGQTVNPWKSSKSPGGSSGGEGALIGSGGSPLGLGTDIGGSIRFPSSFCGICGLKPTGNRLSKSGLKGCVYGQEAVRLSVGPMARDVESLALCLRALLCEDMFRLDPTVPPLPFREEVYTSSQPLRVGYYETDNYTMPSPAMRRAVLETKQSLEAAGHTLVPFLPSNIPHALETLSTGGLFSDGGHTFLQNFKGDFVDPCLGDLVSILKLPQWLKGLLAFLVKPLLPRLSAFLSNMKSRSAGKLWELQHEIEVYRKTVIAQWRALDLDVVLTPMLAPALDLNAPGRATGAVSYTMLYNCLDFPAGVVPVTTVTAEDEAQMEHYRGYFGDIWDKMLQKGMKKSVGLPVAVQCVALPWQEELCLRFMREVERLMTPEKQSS
Sequence of human CB2 receptor (P34972 whole entry): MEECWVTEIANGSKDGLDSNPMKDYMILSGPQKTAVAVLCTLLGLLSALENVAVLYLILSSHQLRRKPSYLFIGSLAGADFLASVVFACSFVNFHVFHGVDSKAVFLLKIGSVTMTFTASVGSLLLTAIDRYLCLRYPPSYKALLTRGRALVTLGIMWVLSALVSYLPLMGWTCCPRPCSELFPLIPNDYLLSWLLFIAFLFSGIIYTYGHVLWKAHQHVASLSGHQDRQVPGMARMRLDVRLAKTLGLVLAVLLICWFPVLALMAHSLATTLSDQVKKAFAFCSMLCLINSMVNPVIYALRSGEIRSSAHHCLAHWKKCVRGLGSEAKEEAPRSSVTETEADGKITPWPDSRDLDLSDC
Sequence of human CB1 receptor (P21554 whole entry): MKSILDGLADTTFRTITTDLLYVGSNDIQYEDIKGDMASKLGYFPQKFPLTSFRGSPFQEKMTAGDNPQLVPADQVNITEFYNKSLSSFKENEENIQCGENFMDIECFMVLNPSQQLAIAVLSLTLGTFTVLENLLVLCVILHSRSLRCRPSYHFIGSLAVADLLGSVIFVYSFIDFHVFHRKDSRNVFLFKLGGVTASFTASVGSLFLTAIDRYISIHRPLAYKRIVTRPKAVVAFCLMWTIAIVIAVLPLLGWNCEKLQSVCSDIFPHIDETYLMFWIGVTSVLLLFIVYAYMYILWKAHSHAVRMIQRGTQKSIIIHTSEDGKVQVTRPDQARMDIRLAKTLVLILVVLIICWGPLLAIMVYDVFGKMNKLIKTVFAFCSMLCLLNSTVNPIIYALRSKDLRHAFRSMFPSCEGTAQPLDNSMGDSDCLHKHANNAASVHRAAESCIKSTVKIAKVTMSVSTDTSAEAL

## CCCCCCC(O)CCCCCCCCCCC(=O)NC(C)C(=O)O (centres unmarked) [Compound 17]
Human CB1 receptor
  CB1 IC50: no binding activities
Human CB2 receptor
  CB2 IC50: no binding activities
[1]
  IC50: 40 µM

## conjugated linoleyl glycinate acid [Compound 1]
Human CB1 receptor
  CB1 IC50: No binding
Human CB2 receptor
  CB2 IC50: No binding
[1]
  IC50: 2.6 µM

## CCCCC/C=C\C=C\CCCCCCCCC(=O)NC(C)C(=O)O (centres unmarked) [Compound 2]
Human CB1 receptor
  CB1 IC50: No binding
Human CB2 receptor
  CB2 IC50: No binding
[1]
  IC50: 2.6 µM

## CCCCCCC(O)C/C=C\CCCCCCCC(=O)NC(C)C(=O)O (centres unmarked) [Compound 12]
[2]; [4]
  Observation: translucent
[2]; [5]
  Observation: translucent
Human CB1 receptor
  CB1 IC50: no binding activities
Human CB2 receptor
  CB2 IC50: no binding activities
[1]
  IC50: 42 µM

## CCCCC/C=C\C=C\CCCCCCCCC(=O)NCCC(=O)O [Compound 4]
Human CB1 receptor
  IC50: 22 µM
Human CB2 receptor
  IC50: 26 µM
[1]
  IC50: 2.8 µM

## CCCCCCC(O)CCCCCCCCCCC(=O)NC(CCC(=O)O)C(=O)O (centres unmarked) [Compound 19]
[2]; 50.00% Tween 60, 35.71% 12-HSA, 14.29% compound
  Observation: translucent

## CCCCCCC(O)C/C=C\CCCCCCCC(=O)NC(C(=O)O)C(C)CC (centres unmarked) [Compound 13]
[2]; [5]
  Observation: translucent

## CCCCCCC(O)C/C=C\CCCCCCCC(=O)NC(CCC(=O)O)C(=O)O (centres unmarked) [Compound 15]
[2]; [5]
  Observation: translucent
[2]; [6]
  Observation: translucent

## CCCCCCC(O)CCCCCCCCCCC(=O)NCC(=O)O (centres unmarked) [Compound 18]
[2]; 48.39% Tween 60, 48.39% 12-HSA, 3.23% compound
  Observation: translucent
Human CB1 receptor
  CB1 IC50: no binding activities
Human CB2 receptor
  CB2 IC50: no binding activities
[1]
  IC50: 46 µM

## CCCCCC/C=C/C=C\CCCCCCCC(=O)NC(Cc1ccccc1)C(=O)O (centres unmarked) [Compound 7]
Human CB1 receptor
  CB1 IC50: No binding
Human CB2 receptor
  CB2 IC50: No binding
[1]
  IC50: 11 µM

## NC(=O)c1cccc(-c2cccc(OC(=O)NC3CCCCC3)c2)c1 [URB597]
[3]
  Serotonin-induced scratches (itch): attenuate

## CCCCCC/C=C/C=C/CCCCCCCC(=O)NCCC(=O)O [Compound 3]
[2]; [7]
  Observation: translucent
Human CB1 receptor
  IC50: 22 µM
Human CB2 receptor
  IC50: 26 µM
[1]
  IC50: 2.8 µM

## CCCCC/C=C\C=C\CCCCCCCCC(=O)NCC(=O)O [Compound 6]
Human CB1 receptor
  CB1 IC50: No binding
Human CB2 receptor
  CB2 IC50: No binding
[1]
  IC50: 3.5 µM

## CCCCCCC(O)C/C=C\CCCCCCCC(=O)NCC(=O)O (centres unmarked) [Compound 14]
[2]; [4]
  Observation: translucent
[2]; [5]
  Observation: translucent
Human CB1 receptor
  CB1 IC50: no binding activities
Human CB2 receptor
  CB2 IC50: no binding activities
[1]
  IC50: 26 µM

## CCCCC/C=C\C=C\CCCCCCCCC(=O)NCC(Cc1c[nH]cn1)C(=O)O (centres unmarked) [Compound 9]
Human CB2 receptor
  IC50: 38 µM
[1]
  IC50: 13 µM

## CCCCCCC(O)CCCCCCCCCCC(=O)NC(CC(=O)O)C(=O)O (centres unmarked) [Compound 16]
[2]; 45.16% Tween 60, 38.71% 12-HSA, 16.13% compound
  Observation: translucent

## CCCCCC/C=C/C=C\CCCCCCCC(=O)NCC(=O)O [Compound 5]
[2]; 33.33% Tween 20, 41.67% 12-HSA, […] compound
  Observation: translucent
[2]; 40% Tween 20, 30% 12-HSA, 10% compound
  Observation: translucent
[2]; 40.00% Tween 20, 40% 12-HSA, 20% compound
  Observation: translucent
[2]; [7]
  Observation: translucent
[2]; 48.28% Tween 60, 34.48% 12-HSA, 17.24% compound
  Observation: translucent
Human CB1 receptor
  CB1 IC50: No binding
Human CB2 receptor
  CB2 IC50: No binding
[1]
  IC50: 3.5 µM

## CCCCC/C=C\C=C\CCCCCCCCC(=O)NC(CCC(=O)O)C(=O)O (centres unmarked) [Compound 11]
[2]; [5]
  Observation: translucent/clear
[2]; [6]
  Observation: translucent
Human CB1 receptor
  CB1 IC50: No binding
Human CB2 receptor
  CB2 IC50: No binding
[1]
  FAAH IC50: No binding

## CCCCC/C=C\C=C\CCCCCCCCC(=O)NC(Cc1ccccc1)C(=O)O (centres unmarked) [Compound 8]
Human CB1 receptor
  CB1 IC50: No binding
Human CB2 receptor
  CB2 IC50: No binding
[1]
  IC50: 11 µM

## CCCCCC/C=C/C=C/CCCCCCCC(=O)NC(CC(=O)O)Cc1c[nH]cn1 (centres unmarked) [Compound 10]
Human CB2 receptor
  IC50: 38 µM
[1]
  IC50: 13 µM
